According to article PMC12220852, “An adamantane‐based ligand as a novel chemical tool for thermosensory TRPM8 channel therapeutic modulation” (The Febs Journal, 2025):
Several values for one entry are separate records, joined by “and”; a condition that tells them apart may be missing. Equal values may be shown once.

Tests used:
hTRPM8 = target: T1, hTRPM8 (Homo sapiens, UniProt Q7Z2W7); test: Whole-cell patch-clamp of WS-12-evoked currents in HEK293 cells expressing hTRPM8; assay type: cell-based
T1 construct: expressed in transfected cells; host or cells: HEK293 (transient, Lipofectamine 3000)
T1 sequence (Q7Z2W7 whole entry): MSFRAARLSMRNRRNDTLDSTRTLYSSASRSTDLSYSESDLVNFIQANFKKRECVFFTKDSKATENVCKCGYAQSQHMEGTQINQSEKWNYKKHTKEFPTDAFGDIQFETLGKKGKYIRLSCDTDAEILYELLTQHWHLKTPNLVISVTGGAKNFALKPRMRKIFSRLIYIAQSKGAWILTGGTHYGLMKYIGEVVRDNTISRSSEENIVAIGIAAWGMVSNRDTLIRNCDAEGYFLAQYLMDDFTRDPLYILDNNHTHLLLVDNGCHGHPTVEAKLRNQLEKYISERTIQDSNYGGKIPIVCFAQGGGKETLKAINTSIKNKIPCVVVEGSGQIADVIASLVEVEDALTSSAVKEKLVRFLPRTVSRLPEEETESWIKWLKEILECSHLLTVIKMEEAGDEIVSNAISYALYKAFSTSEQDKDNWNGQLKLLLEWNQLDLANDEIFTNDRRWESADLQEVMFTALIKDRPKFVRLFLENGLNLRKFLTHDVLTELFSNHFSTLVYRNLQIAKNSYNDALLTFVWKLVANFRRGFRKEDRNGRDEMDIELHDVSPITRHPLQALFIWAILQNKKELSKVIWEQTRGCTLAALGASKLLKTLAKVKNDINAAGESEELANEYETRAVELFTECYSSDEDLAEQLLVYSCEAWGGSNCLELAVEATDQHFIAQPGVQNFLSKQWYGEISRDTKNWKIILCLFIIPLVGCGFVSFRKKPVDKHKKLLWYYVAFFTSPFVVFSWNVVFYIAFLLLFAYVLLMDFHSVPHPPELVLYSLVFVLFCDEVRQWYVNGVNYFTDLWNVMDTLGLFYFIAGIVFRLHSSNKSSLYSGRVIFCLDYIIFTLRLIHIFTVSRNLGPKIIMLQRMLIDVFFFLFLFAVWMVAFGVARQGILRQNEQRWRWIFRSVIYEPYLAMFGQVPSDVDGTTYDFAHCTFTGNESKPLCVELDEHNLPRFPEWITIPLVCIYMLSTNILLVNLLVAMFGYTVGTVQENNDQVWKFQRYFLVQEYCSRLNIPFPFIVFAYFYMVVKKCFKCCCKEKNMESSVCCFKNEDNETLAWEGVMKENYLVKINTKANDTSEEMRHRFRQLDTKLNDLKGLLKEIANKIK
Excerpt: We first used patch‐clamp to investigate the potency and blockade mechanism of compound 23 inhibiting WS‐12 evoked ionic currents in hTRPM8‐HEK293 cells. […] This blockade activity was reversible as virtually all WS‐12‐evoked ionic current could be recovered upon washout (Fig. 3A, bottom panel), thus preventing a use‐dependent side effect.
To unveil the underlying mechanism of channel blockade (competitive vs noncompetitive) we evaluated the effect of the α‐acyloxy carboxamide 23 on WS‐12 activating potency. For this purpose, we obtained the WS‐12 dose response in the absence and presence of 80 nM compound 23 (corresponding to its IC50 value).
For this purpose, we run 100 ms voltage ramps from −120 to 120 mV activated by WS‐12 in the absence and presence of 80 nM α‐acyloxy carboxamide 23.
Recording through patch‐clamp techniques was performed on HEK293 cells cultured in DMEM GlutaMax with 10% FBS and 1% P/S. The cell lines were authenticated following the standardization of STR Profiling guidelines (ANSI/ATCC ASN‐0002‐2022) using the CLA Identifier Plus PCR Amplification Kit (Thermo Fisher‐A44660) to analyze 16 highly variant human STRs. The cells were confirmed to be mycoplasma‐free. These cells were transiently transfected with plasmids encoding hTRPV1, hTRPM8, or hTRPA1 using Lipofectamine 3000. Transfected cells were seeded on 12 mm Ø glass coverslips treated with poly‐L‐lysine solution and recorded 2 days post‐transfection. The intracellular pipette solution included (in mM) 150 NaCl, 3 MgCl2, 5 EGTA, and 10 HEPES, pH 7.2 with CsOH, while the extracellular solution contained (in mM) 150 NaCl, 6 CsCl, 1 MgCl2, 1.5 CaCl2, 10 glucose, and 10 HEPES, pH 7.4 with NaOH. An EPC‐10 amplifier with Patchmaster software was used in whole‐cell experiments. Patch pipettes, created from thin‐wall borosilicate capillary glass tubing, were pulled with a Micropipette puller to a final resistance of 2–8 MΩ when filled with the internal solution. Recordings were acquired at 10 kHz and low‐pass filtered at 3 kHz, discarding recordings with leak currents > 200pA or series resistance > 20 MΩ. In voltage‐clamp recordings, cells were held at a constant potential, and the application of modulators was carried out using a gravity‐driven perfusion system. Total currents were normalized to the first current peak evoked by the activating stimuli. To study the effect of compound 23 on TRPM8 voltage dependence, a voltage step protocol from −120 to 120 mV was used with 100 ms steps of 20 mV from a holding potential at 0 mV. Leak currents were not subtracted, and conductance was calculated using the equation: G = I/(V − V r), where I is the measured ionic current, V is the applied voltage, and V r is the reversal potential that for the ionic conditions used was set to 0 mV.
Dose–response relationships for WS‐12 channel activation were normalized to the response of the channel to a saturating concentration of the agonist. Similarly, dose–response curves for blockade activity were normalized with respect to the response in the absence of the blocker. The experimental data were fitted to the Hill equation: Y=Bottom+Top‐Bottom/(1+10^ligand−LogIC50orLogEC50) using PRISM 9 software. Top was fixed to 100, as the unblocked response or the maximal response for WS‐12.

[1] = Metabolic stability and metabolite profile in mouse liver microsomes (MLM); assay type: in vitro ADME; conditions: after 1 h at 37 °C, 50 μM substrate
Protocol: Because of the lack of systemic activity of compound 23, we evaluated the in vitro plasmatic and hepatic metabolic stability. To this aim, compound 23 was exposed to mouse plasma and mouse liver microsome (MLM) fractions, and the residual substrate was measured after 1 h. Under these conditions, the residual substrate was about 97% and 90% in plasma and microsomes, respectively, denoting that this molecule suffers from mild hydrolysis of the ester group.
Metabolic biotransformation of compound 23 was investigated by tandem high‐resolution mass spectrometry using the software COMPOUND DISCOVERER 3.2™.
The standard incubation mixture (250 μL final volume) was carried out in a 50 mM Tris (tris[hydroxymethyl]aminomethane) buffer (pH 7.4) containing 150 mM KCl, […], 3.3 mM MgCl2, 1.3 mM NADPNa2, 3.3 mM glucose 6‐phosphate, 0.4 units·mL^−1 glucose 6‐phosphate dehydrogenase, acetonitrile as cosolvent (1% of total volume), and the substrate (50 μM). After pre‐equilibration of the mixture, an appropriate volume of MLM suspension was added to give a final protein concentration of 1.0 mg·mL^−1. The mixture was shaken for 60 min at 37 °C using a horizontal shaking thermostatic bath while protecting the samples from light. Control incubations were carried out without the presence of substrate, or NADPH regenerating system, or microsomes. Each incubation was stopped by the addition of 250 μL of ice‐cold acetonitrile, vortexed, and centrifuged at 13 000 r.p.m. for 5 min [68]. The supernatants were analyzed by LC‐UV and LC‐HRMS equipment (see Tables S1 and S2, Fig. S79 for full parameters setting in the Supporting Information).
The metabolic stability of the compound 23 was determined in vitro by measuring the residual peak area after incubation by LC‐UV analysis. Samples were further processed by LC‐HRMS equipment for metabolite profiling. Raw data files were processed using both XCALIBUR® and COMPOUND DISCOVERER 3.2® software (Thermo Scientific) using a customized workflow for the detection and identification of the expected and unknown metabolites (Fig. S80).

[2] = target: T2, recombinant human TRPM8 stably expressed in HEK293 cells (hTRPM8) (Homo sapiens, UniProt Q7Z2W7); test: Ca2+ microfluorimetry screen for agonist/antagonist activity in hTRPM8-HEK293 cells; assay type: cell-based; conditions: agonists vs WS-12, antagonists vs WS-12 response, read-out: Efficacy (percentage of maximal activation or blockade)
T2 construct: expressed in transfected cells
T2 sequence (Q7Z2W7 whole entry): as above

hTRPV1 = target: T3, hTRPV1 (Homo sapiens, UniProt Q8NER1); test: Whole-cell patch-clamp of capsaicin-evoked currents in HEK293 cells expressing hTRPV1; assay type: cell-based; conditions: −60 mV
T3 construct: expressed in transfected cells; host or cells: HEK293 (transient, Lipofectamine 3000)
T3 sequence (Q8NER1 whole entry): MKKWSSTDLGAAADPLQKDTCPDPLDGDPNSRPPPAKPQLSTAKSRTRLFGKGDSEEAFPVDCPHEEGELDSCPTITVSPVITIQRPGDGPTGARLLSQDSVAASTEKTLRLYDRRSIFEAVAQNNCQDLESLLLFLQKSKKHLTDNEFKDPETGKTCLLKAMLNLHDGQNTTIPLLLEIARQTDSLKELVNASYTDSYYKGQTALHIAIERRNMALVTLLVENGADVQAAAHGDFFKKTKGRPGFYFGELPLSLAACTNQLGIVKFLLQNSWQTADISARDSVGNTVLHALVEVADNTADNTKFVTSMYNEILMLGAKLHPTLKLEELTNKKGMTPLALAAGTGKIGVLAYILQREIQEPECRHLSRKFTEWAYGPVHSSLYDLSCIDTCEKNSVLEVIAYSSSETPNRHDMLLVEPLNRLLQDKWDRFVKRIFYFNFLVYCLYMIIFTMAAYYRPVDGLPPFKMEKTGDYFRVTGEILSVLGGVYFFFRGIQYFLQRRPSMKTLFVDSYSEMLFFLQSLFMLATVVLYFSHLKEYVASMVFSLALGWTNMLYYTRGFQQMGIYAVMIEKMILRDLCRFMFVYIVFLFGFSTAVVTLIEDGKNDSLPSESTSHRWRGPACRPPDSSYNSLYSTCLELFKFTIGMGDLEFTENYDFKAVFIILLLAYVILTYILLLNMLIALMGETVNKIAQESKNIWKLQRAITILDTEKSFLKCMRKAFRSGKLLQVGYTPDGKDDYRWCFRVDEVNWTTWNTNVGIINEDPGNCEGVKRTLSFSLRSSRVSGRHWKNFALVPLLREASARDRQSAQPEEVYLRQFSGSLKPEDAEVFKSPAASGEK
Protocol: To evaluate receptor selectivity, we investigated the activity of compound 23 on recombinant hTRPV1 and hTRPA1 channels recombinantly expressed in HEK293 cells (Fig. 4). We choose these thermosensory channels because of their structural similarity and expression in peripheral nociceptive terminals. In addition, some ligand cross‐interaction within these channels has been reported.
Recording through patch‐clamp techniques was performed on HEK293 cells cultured in DMEM GlutaMax with 10% FBS and 1% P/S. The cell lines were authenticated following the standardization of STR Profiling guidelines (ANSI/ATCC ASN‐0002‐2022) using the CLA Identifier Plus PCR Amplification Kit (Thermo Fisher‐A44660) to analyze 16 highly variant human STRs. The cells were confirmed to be mycoplasma‐free. These cells were transiently transfected with plasmids encoding hTRPV1, hTRPM8, or hTRPA1 using Lipofectamine 3000. Transfected cells were seeded on 12 mm Ø glass coverslips treated with poly‐L‐lysine solution and recorded 2 days post‐transfection. […] Leak currents were not subtracted, and conductance was calculated using the equation: G = I/(V − V r), where I is the measured ionic current, V is the applied voltage, and V r is the reversal potential that for the ionic conditions used was set to 0 mV. […]

reduction of WS‐12 evoked inward current (hTRPM8; 1 μM compound, 1 μM WS-12, holding potential −60 mV): ≥ 75%
Schild plot slope (hTRPM8; WS12 vs compound 23 at 0.02, 0.08, 0.1, 0.5 μM): 1.003 and 1.0
reversibility of blockade upon washout (hTRPM8; WS-12-evoked current recovered after washout): reversible
mechanism of channel blockade (hTRPM8; WS-12 dose-response shift and Schild plot): competitive
Hill coefficient of hTRPM8 current blockade (hTRPM8; patch-clamp dose-response, −60 mV): 1
IC50 (hTRPM8; patch-clamp, WS-12 evoked current, −60 mV, N = 3, n = 10, read-out: IC50 of hTRPM8 current blockade): 0.08 ± 0.07 µM
voltage dependency of channel blockade (hTRPM8; voltage steps −120 to 120 mV, 0.08 μM compound 23, 10 μM AMTB): not voltage dependent
residual substrate in mouse liver microsomes without NADPH regenerating system [1]: ~90%
residual substrate in mouse liver microsomes with NADPH regenerating system ([1]; monooxygenase system activated): about 42%
Emax [2]: 100%
block of hTRPV1‐channel activity (hTRPV1; 1 μM compound, 0.5 μM capsaicin): ≈ 50%
IC50 (hTRPV1; capsaicin-evoked current, n = 6, read-out: IC50 of hTRPV1 current blockade): 1.1 µM and 1 µM
SMILES: O=C(COC(=O)c1ccccc1-c1ccccc1)NC12CC3CC(CC(C3)C1)C2 [Compound 23, 2‐((3S,5S,7S)‐adamantan‐1‐ylamino)‐2‐oxoethyl [1,1′‐biphenyl]‐2‐carboxylate]
